According to patent US20080254986A1, “Use of piperonyl butoxide to protect plants” (priority 2007, published 2008):

Key:
Type in all cases: in vivo
[1] = tested on: cotton; experiment: Stomatal conductance of cotton plants after spray application
Experimental: Cotton was planted and grown at 25° C. under a 16:8 photoperiod for 14 days. After two weeks, plants were moved to the greenhouse (25±2° C., 16:8 photoperiod) for an additional three weeks before treatment.
[…] Transpiration rate of each treatment was calculated as the percentage of that of control at each day to eliminate day-to-day variation caused by changes of environmental condition such as light intensity and temperature.
In cotton, ABA, PBO and the combination were applied to evaluate the effect on stomatol conductance. A decrease in stomatal aperture, reflected in the conductance measures, is an immediate and direct effect of applied ABA (Finkelstein and Rock, 2002).

[2] = tested on: Viola (Violet); experiment: Marketability of Viola (Violet) after sprays
Experimental: (§1) Ornamental Plants were purchased from local greenhouse retail outlets and allowed to equilibrate to greenhouse conditions for a minimum of 48 hours before experiments were performed.
(§2) To quantify resistance of plants to wilting, a wilt index was developed. The wilt index uses numerical values of 1-4 (1=no wilt, 4=completely wilted and loss of turgor) to express wilt status. A wilt index was determined for each individual plant assessed daily. When the wilt index was equal to or exceeded 2.5, the plant was considered not salable, and the last day prior to that was considered its last marketable day
To determine if the combination of ABA and PBO is effective at increasing marketable life of other ornamental plants, Viola plants (Violet) were used. All applications were made by spray to fully hydrated plants. Spray solutions were applied as soon as possible after mixing. All spray applications contained Tween 20 at 0.05% (v/v).

[3] = tested on: Pansy; experiment: Marketability of Pansy after sprays
Experimental: as §1, §2
To determine if the ABA, PBO, or the combination of ABA and PBO is effective at increasing marketable life of other ornamental plants, Pansy plants were used. All applications were made by spray to fully hydrated plants. Solutions were applied as soon as possible after mixing. All spray applications contained Tween 20 at 0.05% (v/v). Plants were held in a greenhouse without further irrigation.

[4] = tested on: Impatiens plants; experiment: Marketability of Impatiens plants, ABA drench and PBO foliar spray
Experimental: as §1, §2
To better determine the effectiveness of PBO on ABA effectiveness, a spatial separation in application methodology was used. That is, water or ABA were drench applied at 10% of the pot volume, followed by a spray application to the foliage of Tween 20 (0.05%) in water, either alone, or in combination with 1000 ppm PBO.
In Table 6, the rate of ABA in the drench application is varied in order to determine the effect of PBO sprays on ABA rate.

[5] = tested on: Impatiens plants; experiment: Marketability (days marketable) of Impatiens plants after sprays
Experimental: as §1, §2
When the wilt incidence was less than 2.5, the treated plants were considered saleable. The duration of salability was determined for individual plants and the values averaged (Table 4).

[6] = tested on: Impatiens plants; experiment: Wilt index of Impatiens plants after spray application
Experimental: as §1, §2
In the ornamental plant Impatiens, spray applications were made to evaluate the effects of ABA, PBO or the combination to increase the number of days until the plants wilted. Using a wilt index of 1-4 (1=no wilt, 4=completely wilted and loss of turgor), plants were evaluated following spray application.

[7] = tested on: cotton; experiment: Stomatal conductance of cotton plants after drench application; conditions: for Reduction of stomatal conductance: drench 50 ppm ABA
Experimental: Cotton was planted and grown at 25° C. under a 16:8 photoperiod for 14 days. After two weeks, plants were moved to the greenhouse (25±2° C., 16:8 photoperiod) for an additional three weeks before treatment. […] Transpiration rate of each treatment was calculated as the percentage of that of control at each day to eliminate day-to-day variation caused by changes of environmental condition such as light intensity and temperature. In cotton, ABA, PBO and the combination were applied to evaluate the effect on stomatol conductance. A decrease in stomatal aperture, reflected in the conductance measures, is an immediate and direct effect of applied ABA (Finkelstein and Rock, 2002).

[8] = spray 50 ppm, 0 hours after application
[9] = spray 50 ppm, 5 hours after application
[10] = spray 50 ppm, 24 hours after application
[11] = spray 50 ppm, 48 hours after application
[12] = spray 50 ppm, 72 hours after application
[13] = spray 50 ppm, 96 hours after application
[14] = spray PBO 1000 ppm + Tween 20 0.05%
[15] = drench 50 ppm, 0 hours after application
[16] = drench 50 ppm, 5 hours after application
[17] = drench 50 ppm, 24 hours after application
[18] = drench 50 ppm, 48 hours after application
[19] = drench 50 ppm, 72 hours after application
[20] = drench 50 ppm, 96 hours after application

## CCCCOCCOCCOCc1cc2c(cc1CCC)OCO2 [PBO, piperonyl butoxide]
[1]; PBO 500 ppm added to ABA spray, 5 hours
  Increase of the effect of ABA on stomatal conductance by addition of PBO: 27%
[1]; [8]
  Percent Conductance (stomatal conductance, control = 100%): 101.8%
[1]; [9]
  Percent Conductance (stomatal conductance, control = 100%): 89.6%
[1]; [10]
  Percent Conductance (stomatal conductance, control = 100%): 100.7%
[1]; [11]
  Percent Conductance (stomatal conductance, control = 100%): 100.2%
[1]; [12]
  Percent Conductance (stomatal conductance, control = 100%): 90.2%
[1]; [13]
  Percent Conductance (stomatal conductance, control = 100%): 96.2%
[1]; spray 500 ppm, 0 hours after application
  Percent Conductance (stomatal conductance, control = 100%): 103.0%
[1]; spray 500 ppm, 5 hours after application
  Percent Conductance (stomatal conductance, control = 100%): 67.2%
[1]; spray 500 ppm, 24 hours after application
  Percent Conductance (stomatal conductance, control = 100%): 68.5%
[1]; spray 500 ppm, 48 hours after application
  Percent Conductance (stomatal conductance, control = 100%): 81.5%
[1]; spray 500 ppm, 72 hours after application
  Percent Conductance (stomatal conductance, control = 100%): 84.6%
[1]; spray 500 ppm, 96 hours after application
  Percent Conductance (stomatal conductance, control = 100%): 95.2%
[2]; [14]
  Days Marketable (Wilt index less than 2.5): 5.9 days
[3]; spray PBO 1.5 mg + Tween 20 0.05%
  Days Marketable (Wilt index less than 2.5): 5.8 days
[4]; Table 5, drench water, spray PBO 1000 ppm + Tween 20 0.05%
  Days Marketable (Wilt index less than 2.5): 6.69 days
[4]; Table 6, drench water, spray PBO 1000 ppm + Tween 20 0.05%
  Days Marketable (Wilt index less than 2.5): 6.5 days
[5]; [14]
  Days Marketable (Wilt index less than 2.5): 6.6 days
[6]; spray PBO 1000 ppm + Tween 20 0.05%, 0 days after spray
  Wilt Index (1 = no wilt; 4 = plants wilted, complete loss of turgor): 1
[6]; spray PBO 1000 ppm + Tween 20 0.05%, 4 days after spray
  Wilt Index (1 = no wilt; 4 = plants wilted, complete loss of turgor): 1.13
[6]; spray PBO 1000 ppm + Tween 20 0.05%, 5 days after spray
  Wilt Index (1 = no wilt; 4 = plants wilted, complete loss of turgor): 1.34
[6]; spray PBO 1000 ppm + Tween 20 0.05%, 6 days after spray
  Wilt Index (1 = no wilt; 4 = plants wilted, complete loss of turgor): 1.83
[6]; spray PBO 1000 ppm + Tween 20 0.05%, 7 days after spray
  Wilt Index (1 = no wilt; 4 = plants wilted, complete loss of turgor): 2.25
[7]; [15]
  Percent Conductance (stomatal conductance, control = 100%): 100.8%
[7]; [16]
  Percent Conductance (stomatal conductance, control = 100%): 84.0%
[7]; [17]
  Percent Conductance (stomatal conductance, control = 100%): 95.1%
[7]; [18]
  Percent Conductance (stomatal conductance, control = 100%): 97.7%
[7]; [19]
  Percent Conductance (stomatal conductance, control = 100%): 91.6%
[7]; [20]
  Percent Conductance (stomatal conductance, control = 100%): 101.5%
[7]; drench 500 ppm, 0 hours after application
  Percent Conductance (stomatal conductance, control = 100%): 100.4%
[7]; drench 500 ppm, 5 hours after application
  Percent Conductance (stomatal conductance, control = 100%): 86.8%
[7]; drench 500 ppm, 24 hours after application
  Percent Conductance (stomatal conductance, control = 100%): 89.8%
[7]; drench 500 ppm, 48 hours after application
  Percent Conductance (stomatal conductance, control = 100%): 96.9%
[7]; drench 500 ppm, 72 hours after application
  Percent Conductance (stomatal conductance, control = 100%): 100.2%
[7]; drench 500 ppm, 96 hours after application
  Percent Conductance (stomatal conductance, control = 100%): 93.1%

## S-(+)-abscisic acid [ABA]
[1]; ABA spray, 5 hours after spray application
  Decrease in stomatal conductance: 58.9%
[1]; [8]
  Percent Conductance (stomatal conductance, control = 100%): 101.1%
[1]; [9]
  Percent Conductance (stomatal conductance, control = 100%): 41.1%
[1]; [10]
  Percent Conductance (stomatal conductance, control = 100%): 86.2%
[1]; [11]
  Percent Conductance (stomatal conductance, control = 100%): 91.9%
[1]; [12]
  Percent Conductance (stomatal conductance, control = 100%): 102.0%
[1]; [13]
  Percent Conductance (stomatal conductance, control = 100%): 100.6%
[2]; spray ABA 100 ppm + Tween 20 0.05%
  Days Marketable (Wilt index less than 2.5): 8.0 days
[3]; spray ABA 7.5 mg + Tween 20 0.05%
  Days Marketable (Wilt index less than 2.5): 7.6 days
[4]; Table 5, drench ABA 200 ppm, spray Tween 20 0.05%
  Days Marketable (Wilt index less than 2.5): 7.69 days
[4]; Table 6, drench ABA 50 ppm, spray Tween 20 0.05%
  Days Marketable (Wilt index less than 2.5): 6.5 days
[4]; Table 6, drench ABA 200 ppm, spray Tween 20 0.05%
  Days Marketable (Wilt index less than 2.5): 8.1 days
[5]; ABA spray 200 ppm versus control spray
  Increase in shelf life without watering: almost two day increase
[5]; spray ABA 200 ppm + Tween 20 0.05%
  Days Marketable (Wilt index less than 2.5): 7.5 days
[6]; spray ABA 200 ppm + Tween 20 0.05%, 0 days after spray
  Wilt Index (1 = no wilt; 4 = plants wilted, complete loss of turgor): 1
[6]; spray ABA 200 ppm + Tween 20 0.05%, 4 days after spray
  Wilt Index (1 = no wilt; 4 = plants wilted, complete loss of turgor): 1.00
[6]; spray ABA 200 ppm + Tween 20 0.05%, 5 days after spray
  Wilt Index (1 = no wilt; 4 = plants wilted, complete loss of turgor): 1.27
[6]; spray ABA 200 ppm + Tween 20 0.05%, 6 days after spray
  Wilt Index (1 = no wilt; 4 = plants wilted, complete loss of turgor): 1.66
[6]; spray ABA 200 ppm + Tween 20 0.05%, 7 days after spray
  Wilt Index (1 = no wilt; 4 = plants wilted, complete loss of turgor): 2.31
[7]; 5 hours post drench
  Reduction of stomatal conductance: 44%
[7]; 24 hours post drench
  Reduction of stomatal conductance: 22.5%
[7]; [15]
  Percent Conductance (stomatal conductance, control = 100%): 100.3%
[7]; [16]
  Percent Conductance (stomatal conductance, control = 100%): 56.0%
[7]; [17]
  Percent Conductance (stomatal conductance, control = 100%): 77.5%
[7]; [18]
  Percent Conductance (stomatal conductance, control = 100%): 85.8%
[7]; [19]
  Percent Conductance (stomatal conductance, control = 100%): 83.9%
[7]; [20]
  Percent Conductance (stomatal conductance, control = 100%): 104.3%
